Molecular target: T1, Endoribonuclease toxin MazF (Escherichia coli (strain K12), UniProt P0AE70)
T1 sequence (P0AE70 whole entry): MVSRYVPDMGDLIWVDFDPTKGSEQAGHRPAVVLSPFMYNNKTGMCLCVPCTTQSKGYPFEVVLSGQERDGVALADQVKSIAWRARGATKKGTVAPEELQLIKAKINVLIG
Assay: fluorescent RNA oligo signal without MazF, dose response, counter-screen for MazEF activator project, biochemical, fluorescence, single-stranded RNase substrate (AID 588502)

| SMILES | EC50 |
| --- | --- |
| COc1cc(C2c3c(-c4cccs4)n[nH]c3OC(=N)C2C#N)cc(OC)c1O (stereo not drawn) [SMR000275523] | 13.3 µM |
| Cc1[nH]c2ccccc2c1/C=C1\N=C(c2ccc(F)cc2)OC1=O [2-(4-fluorophenyl)-4-[(2-methyl-1H-indol-3-yl)methylene]-1,3-oxazol-5(4H)-one] | 55.9 µM |
| COCc1n[nH]c2c1C(c1cc(OC)c(O)c(OC)c1)C(C#N)C(=N)O2 (stereo not drawn) [6-azanyl-4-(3,5-dimethoxy-4-oxidanyl-phenyl)-3-(methoxymethyl)-2,4-dihydropyrano[2,3-c]pyrazole-5-carbonitrile] | > 99 µM |
| CSc1nnc(N2C(=O)C(=O)C(C(=O)c3ccc(C)o3)C2c2ccc(C)cc2)s1 (stereo not drawn) [SMR000650392] | > 99 µM |
| CSc1ccc(C2C(C(=O)c3ccco3)C(=O)C(=O)N2c2nnc(SC)s2)cc1 (stereo not drawn) [3-(furan-2-carbonyl)-4-hydroxy-2-(4-methylsulfanylphenyl)-1-(5-methylsulfanyl-1,3,4-thiadiazol-2-yl)-2H-pyrrol-5-one] | > 99 µM |
| N=C(N)C1=CC(=O)/C(=C/C=c2ccc(=C(N)N)cc2)C=C1 [(4E)-4-[2-[4-[bis(azanyl)methylidene]cyclohexa-2,5-dien-1-ylidene]ethylidene]-3-oxidanylidene-cyclohexa-1,5-diene-1-carboximidamide;2-oxidanylethanesulfonic acid] | > 99 µM |
| CCCN1C(=O)C(=NNc2ccc3ccccc3n2)c2ccccc21 [(3Z)-1-propyl-3-(2-quinolinylhydrazinylidene)-2-indolone] | > 99 µM |
| COc1cccc(C2=Nc3nnnn3C(c3ccc(N(C)C)cc3)C2)c1 (stereo not drawn) [4-[5-(3-methoxyphenyl)-1,7-dihydro-[1,2,3,4]tetrazolo[1,5-a]pyrimidin-7-yl]-N,N-dimethyl-aniline] | > 99 µM |
| COc1ccc(Nc2oc3cc(=O)ccc-3cc2C(=O)NCC2CCCO2)c(OC)c1 (stereo not drawn) [2-(2,4-dimethoxyanilino)-7-oxo-N-(2-oxolanylmethyl)-1-benzopyran-3-carboxamide] | > 99 µM |
| O=C1C(=O)N(c2nccs2)C(c2ccccc2)C1C(=O)c1cc2ccccc2o1 (stereo not drawn) [3-(1-benzofuran-2-carbonyl)-4-hydroxy-2-phenyl-1-(1,3-thiazol-2-yl)-2H-pyrrol-5-one] | > 99 µM |
| N#Cc1ccc(-n2c(O)c3[nH][nH]c(C(=O)c4ccc5ccccc5n4)c-3c2=O)cc1 [4-[(3aS,6aS)-4,6-dioxo-3-[oxo(2-quinolinyl)methyl]-3a,6a-dihydro-1H-pyrrolo[3,4-c]pyrazol-5-yl]benzonitrile] | 0.271 µM |
| CCOc1ccc(N=CCC(=O)c2ccc(OC)cc2)c([N+](=O)[O-])c1 | 6.29 µM |
| O=C1N=c2ccccc2=C1NNc1ccccc1F | 31.7 µM |
| COc1cc2c(cc1OC)C(CC(=O)c1ccc([N+](=O)[O-])c(C)c1)=NCC2 [(2Z)-2-(6,7-dimethoxy-3,4-dihydro-2H-isoquinolin-1-ylidene)-1-(3-methyl-4-nitrophenyl)ethanone] | 43.8 µM |
| Cc1cc(O)n(-c2ccc(NCc3ccc(Cl)cc3)c([N+](=O)[O-])c2)c1O [1-{4-[(4-chlorobenzyl)amino]-3-nitrophenyl}-3-methylpyrrolidine-2,5-dione] | > 99 µM |
| O=C1N=c2ccccc2=C1NNc1cccc(Cl)c1 [(3E)-1H-indole-2,3-dione 3-[(3-chlorophenyl)hydrazone]] | > 99 µM |
| COc1ccc(CN=Nc2ccc([N+](=O)[O-])cc2S(=O)(=O)N2CCN(C)CC2)cc1 [MLS000553953] | 8.43 µM |
| O=C1Nc2ccccc2C1=NNc1ccccc1 [3-(phenylhydrazo)-2-indolone] | 54.6 µM |
| CCCCN1C(=O)C(=NNc2ccccc2O)c2ccccc21 [(3Z)-1-butyl-3-[(2-hydroxyphenyl)hydrazinylidene]indol-2-one] | 69.5 µM |
| CCOc1cccc(C2C(C(=O)c3ccc(C)o3)C(=O)C(=O)N2c2nccs2)c1 (stereo not drawn) [2-(3-ethoxyphenyl)-3-(5-methylfuran-2-yl)carbonyl-4-oxidanyl-1-(1,3-thiazol-2-yl)-2H-pyrrol-5-one] | > 99 µM |

| SMILES | EC50 |
| --- | --- |
| O=C(c1ccc2ccccc2n1)c1[nH][nH]c2c(O)n(-c3cccc(C(F)(F)F)c3)c(=O)c1-2 [SMR000212847] | > 99 µM |
| C=c1[nH]n(-c2ccccc2)c(=O)c1=Cc1cc(C)n(C2CC2)c1C [MLS001018445] | > 99 µM |
| O=c1[nH]c(N=NCc2ccc(F)cc2)nc2ccccc12 [MLS000700887] | > 99 µM |
| CC1CC(=O)C2=C(C1)OC(=N)C(C#N)C2c1coc2ccccc2c1=O (stereo not drawn) | > 99 µM |
| Cc1[nH]c2ccccc2c1/C=C1\N=C(c2ccc(C(F)(F)F)cc2)OC1=O [SMR000152363] | > 99 µM |
| O=[N+]([O-])c1cc/c(=N\c2ccccc2O)c2no[nH]c1-2 [MLS001206694] | > 99 µM |
| O=[N+]([O-])c1ccc(N=NCc2ccc3c(c2)OCO3)nc1 [N-(1,3-benzodioxol-5-ylmethylideneamino)-5-nitro-pyridin-2-amine] | > 99 µM |
| Cc1ccc(N/N=C2/C(=O)Nc3ccc(F)cc32)cc1 [5-fluoro-3-[2-(4-methylphenyl)hydrazono]indolin-2-one] | 29.9 µM |
| Cc1cccc(NNC2=c3cc(F)ccc3=NC2=O)c1 [MLS000673317] | > 99 µM |
| CCN1C(=O)C(C=NN=Cc2ccccc2)c2ccc(C3=NNC(=O)CC3)cc21 (stereo not drawn) [benzaldehyde {[1-ethyl-2-oxo-6-(6-oxo-1,4,5,6-tetrahydro-3-pyridazinyl)-1,2-dihydro-3H-indol-3-ylidene]methyl}hydrazone] | > 99 µM |
| O=c1cc2oc(O)c3cc(O)c(O)c(O)c3c-2oc1=O [6,8,9,10-tetrahydroxypyran[3,2-c]isochromene-2,3-quinone] | > 99 µM |
| C=CCOc1cccc(C2C(C(=O)c3ccc(C)o3)C(=O)C(=O)N2c2nccs2)c1 (stereo not drawn) [3-(5-methylfuran-2-yl)carbonyl-4-oxidanyl-2-(3-prop-2-enoxyphenyl)-1-(1,3-thiazol-2-yl)-2H-pyrrol-5-one] | > 99 µM |
| Cc1oc(C)c2c(=O)ccc3c(c12)OC(=N)C(C#N)C3c1ccccc1 (stereo not drawn) | > 99 µM |
| CCC(N=Nc1cccc(C)c1)c1cnnc(SC)n1 (stereo not drawn) [MLS000705906] | > 99 µM |
| CCOC(=O)c1c(NC=C2C(=O)NC(=O)NC2=O)sc2c1CCC2 [ethyl 2-{[(1E)-(2,4,6-trioxohexahydropyrimidin-5-yl)methylene]amino}-5,6-dihydro-4H-cyclopenta[b]thiophene-3-carboxylate] | > 99 µM |
| Cc1ccc2nc(N3C(=O)C(=O)C(C(=O)c4ccco4)C3c3cccs3)sc2c1 (stereo not drawn) | > 99 µM |
| Cn1c(C(C#N)C(=O)COc2ccc3ccccc3c2)nc2ccccc21 (stereo not drawn) [(2E)-2-(3-methyl-1H-benzimidazol-2-ylidene)-4-(2-naphthalenyloxy)-3-oxobutanenitrile] | > 99 µM |
| O=C1Nc2ccc([N+](=O)[O-])cc2C1=NNc1ccc(F)cc1 | 20.3 µM |
| O=C1NC(=O)N(C2CCCCC2)C(=O)C1=CCC=Nc1ccccc1 [(5Z)-5-[(E)-3-anilinoprop-2-enylidene]-1-cyclohexyl-1,3-diazinane-2,4,6-trione] | 9.49 µM |
| COc1ccc(N=CCC(=O)c2ccc(C)cc2)cc1OC [SMR000269732] | 25 µM |

| SMILES | EC50 |
| --- | --- |
| CCCCOc1cccc(C2C(C(=O)c3ccc(C)o3)C(=O)C(=O)N2c2nnc(C)s2)c1 (stereo not drawn) [2-(3-butoxyphenyl)-3-(5-methylfuran-2-yl)carbonyl-1-(5-methyl-1,3,4-thiadiazol-2-yl)-4-oxidanyl-2H-pyrrol-5-one] | 20.4 µM |
| O=C(c1ccc2ccccc2n1)c1[nH][nH]c2c(O)n(-c3cccc(F)c3)c(=O)c1-2 [(3aS,6aS)-5-(3-fluorophenyl)-3-[oxo(2-quinolinyl)methyl]-3a,6a-dihydro-1H-pyrrolo[3,4-c]pyrazole-4,6-dione] | > 99 µM |
| O=C1N=c2ccccc2=C1NNc1ccc(F)cc1 | > 99 µM |
| Cc1ccc(C2=Nc3nnnn3C(c3ccc(N(C)C)cc3)C2)cc1 (stereo not drawn) [SMR000092467] | > 99 µM |
| Cc1ccc(Cl)c2c1=NC(=O)C=2NNc1ccccc1 | 8.15 µM |
| O=C1N=c2ccc(Br)cc2=C1NNc1ccc(F)cc1 [SMR000564049] | 45.8 µM |
| COc1ccc(C=C2CCCC(C(=O)C(F)(F)F)C2=O)cc1 (stereo not drawn) [SMR000142699] | 33.8 µM |
| Clc1cccc(C(Cc2nc3ccccc3[nH]2)N=Nc2ccccc2)c1 (stereo not drawn) [MLS000374846] | > 99 µM |
| O=[N+]([O-])c1ccc(N=NCc2cccc3ccccc23)nc1 [N-(naphthalen-1-ylmethylideneamino)-5-nitro-pyridin-2-amine] | 45.4 µM |
| Cc1ccc(NN=C2C(=O)N(CN3CCOCC3)c3ccccc32)cc1 [(3Z)-3-[(4-methylphenyl)hydrazinylidene]-1-(4-morpholinylmethyl)-2-indolone] | 50.5 µM |
| N#CC(C(=O)c1ccc([N+](=O)[O-])o1)c1nc2ccccc2[nH]1 (stereo not drawn) | 5.53 µM |
| CC1(C)CC(=O)C(N=Nc2cc3c(cc2[N+](=O)[O-])OCCO3)C(=O)C1 [SMR000348183] | 29.6 µM |
| O=[N+]([O-])c1ccc(N=NCc2ccccc2)c(F)c1 [2-fluoranyl-4-nitro-N-[(phenylmethylidene)amino]aniline] | 27.2 µM |
| CCN(CC)c1ccc(CN=Nc2ccc([N+](=O)[O-])cn2)cc1 [N-[[4-(diethylamino)phenyl]methylideneamino]-5-nitro-pyridin-2-amine] | 70.2 µM |
| Oc1ccc2ccccc2c1C=Nn1c(O)csc1=S [MLS002707175] | > 99 µM |
| CCSc1nnc(N2C(=O)C(=O)C(C(=O)c3ccco3)C2c2cccc(OC)c2)s1 (stereo not drawn) [MLS001140620] | > 99 µM |
| Cc1nnc(N2C(=O)C(=O)C(C(=O)c3ccco3)C2c2ccc(C(C)(C)C)cc2)s1 (stereo not drawn) [2-(4-tert-butylphenyl)-3-(furan-2-carbonyl)-4-hydroxy-1-(5-methyl-1,3,4-thiadiazol-2-yl)-2H-pyrrol-5-one] | 19.7 µM |
| Cc1ccc(S(=O)(=O)N[N-][C+]2CCC(C(C)(C)C)CC2)cc1[N+](=O)[O-] [SMR000241764] | > 99 µM |
